# Assay results from patent US20220332695A1, “UREA DERIVATIVES AS CB1 ALLOSTERIC MODULATORS” (RTI INTERNATIONAL, priority 2019, published 2022).
# “And” between values parts separate entries of the source, which are not always exact repeats. Identical values can stand only once.
# System: MDCK-MDR1 cells
# Experiment: Bidirectional MDCK-MDR1 permeability assay
# Type: in vitro ADME
# Conditions: MDCK-MDR1, 10 μM test article
# Experimental: Permeability Assessment. Bidirectional MDCK-MDR1 permeability assay was performed by Paraza Pharma Inc. (Montreal, Canada). MDCK-mdr1 cells at passage 5 were seeded onto permeable polycarbonate supports in 12-well Costar Transwell plates and allowed to grow and differentiate for 3 days. On day 3, culture medium (DMEM supplemented with 10% FBS) was removed from both sides of the transwell inserts and cells were rinsed with warm HBSS. After the rinse step, the chambers were filled with warm transport buffer (HBSS containing 10 mM HEPES, 0.25% BSA, pH 7.4) and the plates were incubated at 37° C. for 30 min prior to TEER (Trans Epithelial Electric Resistance) measurements.
# The buffer in the donor chamber (apical side for A-to-B assay, basolateral side for B-to-A assay) was removed and replaced with the working solution (10 μM test article in transport buffer). The plates were then placed at 37° C. under light agitation. At designated time points (30, 60 and 90 min), an aliquot of transport buffer from the receiver chamber was removed and replenished with fresh transport buffer. Samples were quenched with ice-cold ACN containing internal standard and then centrifuged to pellet protein. Resulting supernatants are further diluted with 50/50 ACN/H2O (H2O only for Atenolol) and submitted for LC-MS/MS analysis. Reported apparent permeability (Papp) values were calculated from single determination.
# Atenolol and propranolol were tested as low and […] permeability references.
# The apparent permeability (Papp, measured in cm/s) of a compound is determined according to the following formula […]: […]
# where dQ/dt is the net rate of appearance in the receiver compartment; A is the area of the Transwell measured in cm^2 (1.12 cm^2); Ci is the initial concentration of compound added to the donor chamber; and 60 is the conversion factor for minute to second.
Compound,Papp A to B,Papp B to A
"O=C(Nc1ccc(Cl)cc1)Nc1cccc(-c2cccc(N3CCCC3)n2)c1 [Compound 2, reference compound]",2.6 ± 0 ×10^−6 cm/s,2.2 ± 0.1 ×10^−6 cm/s

# System: not listed separately
# Experiment: Kinetic solubility assessment
# Type: physicochemical
# Conditions: aqueous buffer, kinetic from dmso stock, phosphate buffer, 2 hours room temperature
# Experimental: The solution was agitated on a VX-2500 multi-tube vortexer (VWR International, Radnor, Pa., United States of America) for 2 hours at room temperature. Following agitation, the sample was filtrated on a glass-fiber filter (1 μm) and the eluate was diluted 400-fold with a mixture of acetonitrile: water (1:1). On each experimental occasion, nicardipine and imipramine were assessed as reference compounds for low and high solubility, respectively. All samples were assessed in triplicate and analyzed by LC-MS/MS using electrospray ionization against standards prepared in the same matrix.
row,Compound,solubility at 2 h [µM]
1,"O=C(Nc1ccc(Cl)cc1)Nc1ccc(-c2ccc(F)cc2F)s1 [Compound 20, 1-(4-Chlorophenyl)-3-[5-(2,4-difluorophenyl)thiophen-2-yl]urea]",< 0.5
2,"O=C(Nc1ccc(Cl)cc1)Nc1cccc(-c2cccc(N3CCCC3)n2)c1 [Compound 2, reference compound]",< 0.5

# System: not listed separately
# Experiment: Metabolic stability in rat liver microsomes
# Type: in vitro ADME
# Conditions: NADPH, mean ± SD
# Experimental: Metabolic stability assessment: Compounds were incubated with rat liver microsomes at 37° C. for a total of 45 minutes. The reaction was performed at pH 7.4 in 100 mM potassium phosphate buffer containing 0.5 mg/mL of rat liver microsomal protein. Phase I metabolism was assessed by adding NADPH to a final concentration of 1 mM and collecting samples at time points 0, 5, 15, 30 and 45 minutes. All collected samples were quenched 1:1 with ice-cold stop solution (1 μM labetalol and 1 μM glyburide in acetonitrile) and centrifuged to remove precipitated protein. Resulting supernatants were further diluted 1:4 with acetonitrile:water (1:1). Samples were analyzed by LC/MS/MS and calculations for half-life, and in-vitro clearance were accomplished using Microsoft Excel (2007).
row,Compound,half-life
1,"O=C(Nc1ccc(Cl)cc1)Nc1cccc(-c2cccc(N3CCCC3)n2)c1 [Compound 2, reference compound]",13 min and 13.4 ± 4.1 min

# Same assay, conditions: mean ± SD
row,Compound,Clearance [µL/min/mg]
1,"O=C(Nc1ccc(Cl)cc1)Nc1cccc(-c2cccc(N3CCCC3)n2)c1 [Compound 2, reference compound]",113.7 ± 34.4

# Same assay, conditions: pH 7.4, NADPH, mean ± SD, read-out: Half-life
row,Compound,half-life [min]
1,"O=C(Nc1ccc(Cl)cc1)Nc1ccc(-c2ccc(F)cc2F)s1 [Compound 20, 1-(4-Chlorophenyl)-3-[5-(2,4-difluorophenyl)thiophen-2-yl]urea]",72

# Same assay, conditions: pH 7.4, mean ± SD, read-out: Clearance
row,Compound,microsomal CLint [µL/min/mg]
1,"O=C(Nc1ccc(Cl)cc1)Nc1ccc(-c2ccc(F)cc2F)s1 [Compound 20, 1-(4-Chlorophenyl)-3-[5-(2,4-difluorophenyl)thiophen-2-yl]urea]",19.3 ± 1.6

# Molecular target: T1, hCB1R (Homo sapiens, UniProt P21554)
# Experiment: Real-time BRET CAMYEL cAMP assay in HEK293 cells expressing human CB1
# Type: cell-based
# Parameters: expressed in transfected cells; host or cells: HEK293 cells stably transfected with human CB1, transiently transfected with pcDNA3L-His-CAMYEL sensor
# Conditions: [CP] = 100 nM; forskolin-stimulated cAMP
# Experimental: cAMP Assay: The cAMP assay was performed as previously described. […] Briefly, forskolin (FSK)-stimulated cyclic adenosine monophosphate (cAMP) production was measured in real-time using a transfected bioluminescence resonance energy transfer (BRET) cAMP sensor. The plasmid encodes a cAMP binding domain (Epac1) flanked by yellow fluorescent protein (YFP) and Renilla Luciferase (RLuc) assay, the latter of which can oxidize coelenterazine H and produce a photon as a byproduct. When cAMP is bound to the Epac1 domain, it separates RLuc and YFP so only Rluc emits a photon at a wavelength of 460 nm. When cAMP is not bound, RLuc can excite YFP, emitting light at wavelength 535 nm. A plate reader measures both wavelengths and their ratio, 460/535, is calculated to quantify cAMP levels where increases in the ratio indicate increases in cAMP. Human Embryonic Kidney 293 (HEK293) cells stably transfected with the human cannabinoid type-1 (C131) were maintained at 37° C. at 5% CO2 and seeded in 100 mM dishes for transfection. The next day, cells were given fresh growth media and transfected with 5 pg of pcDNA3L-His-CAMYEL using linear polyethyleneimine (25 kDa, Polysciences, Warrington, Pennsylvania, United States of America) in 1:6 DNA:PEI (ATCC, Manassas, Virginia, United States of America) ratio. The next day, cells were lifted using 1 mM EDTA in PBS and spun down at 200xg for 5 min. The supernatant was removed, and cells were resuspended in growth media and plated on poly-D-lysine (Sigma Aldrich, St. Louis, Missouri, United States of America) coated white 96 well plates at 60,000 cells per well, filling 2 columns of 8 wells each per plate, i.e. 8 samples in duplicate per plate (Perkin Elmer, Waltham, Massachusetts,
# United States of America). The following day, media was removed, cells were rinsed with PBS and buffers/reagents/drugs added as following: At 0 min, 175 of stimulation buffer (5 mg/ml bovine serum albumin in HBSS including Ca^2+ and Mg^2+); at 10 min, 25 μL of allosteric modulators added; at 15 min: 25 μL coelenterazine added (5 μM final); at 25 min, 25 μL of forskolin (10 final) with or without CP55,940 (100 nM final) added. […] Ratio of 460/535 is calculated for each time point and plotted across time and area under the curve analysis is conducted for each replicate and averaged by condition/day where each day serves as an independent experiment. Data were calculated as %FSK using the formula [(sample-basal)/(forskolin-basal)×100]. IC50 values were calculated from these normalized concentration-response data using Prism 6 (Graphpad Software, San Diego, Calif., United States of America) using 3 parameter non-linear regression. Data are plotted as mean of at least N=3 independent experiments either normalized to forskolin (concentration response data) or the calculated 460/535 BRET ratio (time course data).
# T1 sequence (P21554 whole entry): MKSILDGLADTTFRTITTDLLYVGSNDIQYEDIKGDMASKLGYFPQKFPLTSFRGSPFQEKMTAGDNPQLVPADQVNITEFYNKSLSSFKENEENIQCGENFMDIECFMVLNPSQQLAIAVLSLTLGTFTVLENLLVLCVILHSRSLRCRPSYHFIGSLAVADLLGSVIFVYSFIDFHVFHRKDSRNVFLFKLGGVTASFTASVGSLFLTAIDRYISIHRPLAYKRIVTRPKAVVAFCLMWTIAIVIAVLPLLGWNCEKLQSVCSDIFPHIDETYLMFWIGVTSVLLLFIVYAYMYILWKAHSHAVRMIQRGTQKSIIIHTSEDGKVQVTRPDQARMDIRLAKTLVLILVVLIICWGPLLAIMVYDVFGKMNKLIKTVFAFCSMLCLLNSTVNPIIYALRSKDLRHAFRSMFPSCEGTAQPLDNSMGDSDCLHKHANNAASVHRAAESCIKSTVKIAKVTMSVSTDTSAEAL
row,Compound,IC50 [nM]
1,"O=C(Nc1ccc(Cl)cc1)Nc1ccc(-c2ccncc2)s1 [Compound 35, 1-(4-Chlorophenyl)-3-[5-(pyridin-4-yl)thiophen-2-yl]urea]",1800
2,"O=C(Nc1ccc(Cl)cc1)Nc1ccc(-c2ccccc2Cl)s1 [Compound 21, 1-(4-Chlorophenyl)-3-[5-(2-chlorophenyl)thiophen-2-yl]urea]",1190
3,"COc1ccc(-c2ccc(NC(=O)Nc3ccc(Cl)cc3)s2)cc1 [Compound 31, 1-(4-Chlorophenyl)-3-[5-(4-methoxyphenyl)thiophen-2-yl]urea]",1850
4,"COc1cccc(-c2ccc(NC(=O)Nc3ccc(Cl)cc3)s2)c1 [Compound 30, 1-(4-Chlorophenyl)-3-[5-(3-methoxyphenyl)thiophen-2-yl]urea]",6350
5,"O=C(Nc1ccc(Cl)cc1)Nc1ccc(-c2cc(Cl)cc(Cl)c2)s1 [Compound 25, 1-(4-Chlorophenyl)-3-[5-(3,5-dichlorophenyl)thiophen-2-yl]urea]",> 10000
6,"CN(C)c1cccc(-c2ccc(NC(=O)Nc3ccc(Cl)cc3)s2)c1 [Compound 33, 1-(4-Chlorophenyl)-3-{5-[3-(dimethylamino)phenyl]thiophen-2-yl}urea]",> 10000
7,"O=C(Nc1ccc(Cl)cc1)Nc1ccc(-c2ccc(F)cc2F)s1 [Compound 20, 1-(4-Chlorophenyl)-3-[5-(2,4-difluorophenyl)thiophen-2-yl]urea]",2290

# Same assay, conditions: concentrations up to 10 μM
row,Compound,inverse agonism in cAMP assay
1,"O=C(Nc1ccc(Cl)cc1)Nc1ccc(-c2ccccc2Cl)s1 [Compound 21, 1-(4-Chlorophenyl)-3-[5-(2-chlorophenyl)thiophen-2-yl]urea]",displayed inverse agonism

# Molecular target: T2, mouse CB1R (Mus musculus, UniProt P47746)
# T2 construct: membranes (10 μg protein) from either ICR mouse cerebellum mice; from tissue; host or cells: cerebellum membranes of ICR mice
# Experiment: [35S]GTPγS binding assay in mouse cerebellum membranes
# Type: biochemical
# Conditions: compared with compound 2
# Experimental: (§1) [^35S]GTPγS Binding Assay: For receptor signaling, membranes (10 μg protein) from either ICR mouse cerebellum mice (6-8 weeks old; Enviga
# (§2) Non-specific binding was determined by adding 30 μM unlabeled GTPyS. Concentration response curves for allosteric modulators were conducted in the presence of CP55,940 (100 nM or 1 μM) to calculate 1050 values.
# (§3) For [^35S]GTPyS experiments, data were normalized to maximal CP55,940 (100 nM) stimulation in the absence of test compound (i.e., vehicle=100%).
# Select compounds were evaluated in the CP55,940-induced [^35S]GTPyS binding assays using mouse cerebellum membrane at two CP55,940 concentrations, 100 nM and 1μM.
# T2 sequence (P47746 whole entry): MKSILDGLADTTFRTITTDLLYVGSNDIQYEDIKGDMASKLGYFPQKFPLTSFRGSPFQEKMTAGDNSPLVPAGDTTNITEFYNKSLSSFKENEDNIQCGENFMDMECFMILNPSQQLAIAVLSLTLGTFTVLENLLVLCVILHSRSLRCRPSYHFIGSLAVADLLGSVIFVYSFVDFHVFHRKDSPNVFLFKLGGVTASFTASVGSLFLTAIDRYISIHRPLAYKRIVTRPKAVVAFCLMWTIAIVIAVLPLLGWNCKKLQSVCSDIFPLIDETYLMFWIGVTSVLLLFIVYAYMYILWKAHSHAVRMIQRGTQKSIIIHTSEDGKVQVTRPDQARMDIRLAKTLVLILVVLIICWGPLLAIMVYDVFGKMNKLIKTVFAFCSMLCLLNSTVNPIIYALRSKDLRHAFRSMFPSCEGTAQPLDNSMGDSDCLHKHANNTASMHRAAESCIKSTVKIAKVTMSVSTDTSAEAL
row,Compound,activity in [35S]GTPγS binding assay against mouse CB1R (in words)
1,"O=C(Nc1ccc(Cl)cc1)Nc1cc(-c2ccccc2)cs1 [Compound 12, 1-(4-Chlorophenyl)-3-(4-phenylthiophen-2-yl)urea]",weaker potency

# Same assay, conditions: mouse cerebellum membrane; [CP] = 100 nM; read-out: mCB1R GTPγS IC50
row,Compound,IC50
1,"O=C(Nc1ccc(Cl)cc1)Nc1ccc(-c2ccncc2)s1 [Compound 35, 1-(4-Chlorophenyl)-3-[5-(pyridin-4-yl)thiophen-2-yl]urea]",287 nM and 204 nM
2,"O=C(Nc1ccc(Cl)cc1)Nc1ccc(-c2ccccc2Cl)s1 [Compound 21, 1-(4-Chlorophenyl)-3-[5-(2-chlorophenyl)thiophen-2-yl]urea]",363 nM
3,"COc1ccc(-c2ccc(NC(=O)Nc3ccc(Cl)cc3)s2)cc1 [Compound 31, 1-(4-Chlorophenyl)-3-[5-(4-methoxyphenyl)thiophen-2-yl]urea]",110 nM
4,"COc1cccc(-c2ccc(NC(=O)Nc3ccc(Cl)cc3)s2)c1 [Compound 30, 1-(4-Chlorophenyl)-3-[5-(3-methoxyphenyl)thiophen-2-yl]urea]",3020 nM
5,"O=C(Nc1ccc(Cl)cc1)Nc1ccc(-c2cc(Cl)cc(Cl)c2)s1 [Compound 25, 1-(4-Chlorophenyl)-3-[5-(3,5-dichlorophenyl)thiophen-2-yl]urea]",3310 nM
6,"CN(C)c1cccc(-c2ccc(NC(=O)Nc3ccc(Cl)cc3)s2)c1 [Compound 33, 1-(4-Chlorophenyl)-3-{5-[3-(dimethylamino)phenyl]thiophen-2-yl}urea]",3470 nM
7,"O=C(Nc1ccc(Cl)cc1)Nc1ccc(-c2ccc(F)cc2F)s1 [Compound 20, 1-(4-Chlorophenyl)-3-[5-(2,4-difluorophenyl)thiophen-2-yl]urea]",138 nM
8,"O=C(Nc1ccc(Cl)cc1)Nc1cccc(-c2cccc(N3CCCC3)n2)c1 [Compound 2, reference compound]",244 nM

# Same assay, conditions: mouse cerebellum membrane; [CP] = 1 uM; read-out: mCB1R GTPγS IC50
row,Compound,IC50
1,"O=C(Nc1ccc(Cl)cc1)Nc1ccc(-c2ccncc2)s1 [Compound 35, 1-(4-Chlorophenyl)-3-[5-(pyridin-4-yl)thiophen-2-yl]urea]",129 nM and 120 nM
2,"O=C(Nc1ccc(Cl)cc1)Nc1ccc(-c2ccccc2Cl)s1 [Compound 21, 1-(4-Chlorophenyl)-3-[5-(2-chlorophenyl)thiophen-2-yl]urea]",204 nM
3,"COc1ccc(-c2ccc(NC(=O)Nc3ccc(Cl)cc3)s2)cc1 [Compound 31, 1-(4-Chlorophenyl)-3-[5-(4-methoxyphenyl)thiophen-2-yl]urea]",120 nM
4,"COc1cccc(-c2ccc(NC(=O)Nc3ccc(Cl)cc3)s2)c1 [Compound 30, 1-(4-Chlorophenyl)-3-[5-(3-methoxyphenyl)thiophen-2-yl]urea]",1620 nM
5,"O=C(Nc1ccc(Cl)cc1)Nc1ccc(-c2cc(Cl)cc(Cl)c2)s1 [Compound 25, 1-(4-Chlorophenyl)-3-[5-(3,5-dichlorophenyl)thiophen-2-yl]urea]",2400 nM
6,"CN(C)c1cccc(-c2ccc(NC(=O)Nc3ccc(Cl)cc3)s2)c1 [Compound 33, 1-(4-Chlorophenyl)-3-{5-[3-(dimethylamino)phenyl]thiophen-2-yl}urea]",3310 nM
7,"O=C(Nc1ccc(Cl)cc1)Nc1ccc(-c2ccc(F)cc2F)s1 [Compound 20, 1-(4-Chlorophenyl)-3-[5-(2,4-difluorophenyl)thiophen-2-yl]urea]",48 nM
8,"O=C(Nc1ccc(Cl)cc1)Nc1cccc(-c2cccc(N3CCCC3)n2)c1 [Compound 2, reference compound]",127 nM

# Molecular target: T1, hCB1R
# Experiment: Calcium mobilization assay, antagonist mode against CP55,940
# Type: cell-based
# Parameters: expressed in transfected cells; host or cells: CHO-RD-HGA16 cells (parental line from Molecular Devices)
# Conditions: CHO cells expressing human CB1R; against CP55,940 (100 nM); mean ± SEM; read-out: hCB1R Calcium assay IC50
# Experimental: Calcium Mobilization Assay: CHO-RD-HGA16 cells (Molecular Devices, San Jose, Calif., United States of America) stably expressing the human CB1 receptor were plated into 96-well black-walled assay plates at 25,000 cells/well in 100 pL of Ham's F12 (supplemented with 10% fetal bovine serum, 100 units of penicillin/streptomycin, and 100 µg/mL Normocin) and incubated overnight at 37° C., 5% CO2. Calcium 5 dye (Molecular Devices, San Jose, Calif., United States of America) was reconstituted according to the manufacturer's instructions. The reconstituted dye was diluted 1:40 in prewarmed (37° C.) assay buffer (1x HBSS, 20 mM HEPES, 2.5 mM probenecid, pH 7.4 at 37° C.). Growth medium was removed, and the cells were gently washed with 100 pL of prewarmed (37° C.) assay buffer. The cells were incubated for 45 min at 37° C., 5% CO2 in 200 pL of the diluted Calcium 5 dye solution. […] Serial dilutions of the test compounds were prepared at 10x the desired final concentration in 2.25% BSA/4.5% DMSO/4.5% EtOH/assay buffer. After the dye loading incubation period, the cells were pretreated with 25 pL of the test compound serial dilutions and incubated for 15 min at 37° C. After the pretreatment incubation period, the plate was read with a FLIPR Tetra (Molecular Devices, San Jose, Calif., United States of America). Calcium-mediated changes in fluorescence were monitored every 1 s over a 90 s time period, with the Tetra adding 25 pL of the CP55,940 EC80 concentration at the 10s time point (excitation/emission: 485/525 nm). Relative fluorescence units (RFU) were plotted against the log of compound concentrations. For agonist screens, the above procedure was followed except that cells were pretreated with 2.25% BSA/4.5% DMSO/4.5% EtOH/assay buffer and the Tetra added single concentration dilutions of the test compounds prepared at 10x the desired final concentration in 0.25% BSA/0.5% DMSO/0.5% EtOH/assay buffer. Test compound RFUs were compared to the CP55,940 Emax RFUs to generate % Emax values.
# Data Analysis: For calcium mobilization experiments, data were fit to a three-parameter logistic curve to generate IC50 values (GraphPad Prism 6.0, Graphpad Software, San Diego, Calif., United States of America).
row,Compound,IC50 [nM]
1,"O=C(Nc1ccc(Cl)cc1)Nc1ccc(-c2ccncc2)s1 [Compound 35, 1-(4-Chlorophenyl)-3-[5-(pyridin-4-yl)thiophen-2-yl]urea]",79 ± 13
2,"O=C(Nc1ccc(Cl)cc1)Nc1ccc(-c2ccccc2Cl)s1 [Compound 21, 1-(4-Chlorophenyl)-3-[5-(2-chlorophenyl)thiophen-2-yl]urea]",21 ± 2
3,"COc1ccc(-c2ccc(NC(=O)Nc3ccc(Cl)cc3)s2)cc1 [Compound 31, 1-(4-Chlorophenyl)-3-[5-(4-methoxyphenyl)thiophen-2-yl]urea]",31 ± 2
4,"COc1cccc(-c2ccc(NC(=O)Nc3ccc(Cl)cc3)s2)c1 [Compound 30, 1-(4-Chlorophenyl)-3-[5-(3-methoxyphenyl)thiophen-2-yl]urea]",61
5,"O=C(Nc1ccc(Cl)cc1)Nc1ccc(-c2cc(Cl)cc(Cl)c2)s1 [Compound 25, 1-(4-Chlorophenyl)-3-[5-(3,5-dichlorophenyl)thiophen-2-yl]urea]",92 ± 12
6,"O=C(Nc1ccc(Cl)cc1)Nc1cc(-c2ccccc2)cs1 [Compound 12, 1-(4-Chlorophenyl)-3-(4-phenylthiophen-2-yl)urea]",37 ± 2
7,"CN(C)c1cccc(-c2ccc(NC(=O)Nc3ccc(Cl)cc3)s2)c1 [Compound 33, 1-(4-Chlorophenyl)-3-{5-[3-(dimethylamino)phenyl]thiophen-2-yl}urea]",89 ± 14
8,"O=C(Nc1ccc(Cl)cc1)Nc1ccc(-c2ccc(F)cc2F)s1 [Compound 20, 1-(4-Chlorophenyl)-3-[5-(2,4-difluorophenyl)thiophen-2-yl]urea]",22 ± 4

# Molecular target: T1, hCB1R
# Experiment: Intrinsic activity: basal [35S]GTPγS binding in the absence of CP55,940
# Type: biochemical
# Conditions: up to 10 μM
row,Compound,inverse agonism (in words)
1,"O=C(Nc1ccc(Cl)cc1)Nc1ccc(-c2ccncc2)s1 [Compound 35, 1-(4-Chlorophenyl)-3-[5-(pyridin-4-yl)thiophen-2-yl]urea]",some degree of inverse agonism

# Molecular target: T1, hCB1R
# Experiment: [35S]GTPγS binding assay in HEK cells stably expressing human CB1R
# Type: biochemical
# Parameters: expressed in transfected cells; host or cells: HEK (HEK293) cells, membranes
# Conditions: [CP] = 100 nM, mean (95% confidence interval), read-out: hCB1R [35S]GTPγS binding assay IC50
# Experimental: as §1, §2, §3
row,Compound,IC50 [nM]
1,"O=C(Nc1ccc(Cl)cc1)Nc1ccc(-c2ccncc2)s1 [Compound 35, 1-(4-Chlorophenyl)-3-[5-(pyridin-4-yl)thiophen-2-yl]urea]",298
2,"O=C(Nc1ccc(Cl)cc1)Nc1ccc(-c2ccccc2Cl)s1 [Compound 21, 1-(4-Chlorophenyl)-3-[5-(2-chlorophenyl)thiophen-2-yl]urea]",272
3,"COc1ccc(-c2ccc(NC(=O)Nc3ccc(Cl)cc3)s2)cc1 [Compound 31, 1-(4-Chlorophenyl)-3-[5-(4-methoxyphenyl)thiophen-2-yl]urea]",449
4,"COc1cccc(-c2ccc(NC(=O)Nc3ccc(Cl)cc3)s2)c1 [Compound 30, 1-(4-Chlorophenyl)-3-[5-(3-methoxyphenyl)thiophen-2-yl]urea]",3280
5,"O=C(Nc1ccc(Cl)cc1)Nc1ccc(-c2cc(Cl)cc(Cl)c2)s1 [Compound 25, 1-(4-Chlorophenyl)-3-[5-(3,5-dichlorophenyl)thiophen-2-yl]urea]",6330
6,"O=C(Nc1ccc(Cl)cc1)Nc1cc(-c2ccccc2)cs1 [Compound 12, 1-(4-Chlorophenyl)-3-(4-phenylthiophen-2-yl)urea]",667
7,"CN(C)c1cccc(-c2ccc(NC(=O)Nc3ccc(Cl)cc3)s2)c1 [Compound 33, 1-(4-Chlorophenyl)-3-{5-[3-(dimethylamino)phenyl]thiophen-2-yl}urea]",5020
8,"O=C(Nc1ccc(Cl)cc1)Nc1ccc(-c2ccc(F)cc2F)s1 [Compound 20, 1-(4-Chlorophenyl)-3-[5-(2,4-difluorophenyl)thiophen-2-yl]urea]",84
